For 4 compounds, inhibition results are on record in ChEMBL document CHEMBL2146374, “Fused heterocyclic compounds as ion channel modulators: patent highlight” (ACS Med Chem Lett, 2012).

The data set deals with Nav1.5 (sodium channel protein type 5 subunit alpha) (Homo sapiens, UniProt Q14524). The experiment in a line: Inhibition of human Nav1.5 expressed in HEK293 cells at 1 uM by whole cell patch clamp assay. It is filed as cell-based. The conditions noted are these: HEK293 cells that express human Nav1.5. Background: Patch clamp records ionic current or voltage across a cell membrane.
Sequence of Nav1.5 (sodium channel protein type 5 subunit alpha) (Q14524 whole entry): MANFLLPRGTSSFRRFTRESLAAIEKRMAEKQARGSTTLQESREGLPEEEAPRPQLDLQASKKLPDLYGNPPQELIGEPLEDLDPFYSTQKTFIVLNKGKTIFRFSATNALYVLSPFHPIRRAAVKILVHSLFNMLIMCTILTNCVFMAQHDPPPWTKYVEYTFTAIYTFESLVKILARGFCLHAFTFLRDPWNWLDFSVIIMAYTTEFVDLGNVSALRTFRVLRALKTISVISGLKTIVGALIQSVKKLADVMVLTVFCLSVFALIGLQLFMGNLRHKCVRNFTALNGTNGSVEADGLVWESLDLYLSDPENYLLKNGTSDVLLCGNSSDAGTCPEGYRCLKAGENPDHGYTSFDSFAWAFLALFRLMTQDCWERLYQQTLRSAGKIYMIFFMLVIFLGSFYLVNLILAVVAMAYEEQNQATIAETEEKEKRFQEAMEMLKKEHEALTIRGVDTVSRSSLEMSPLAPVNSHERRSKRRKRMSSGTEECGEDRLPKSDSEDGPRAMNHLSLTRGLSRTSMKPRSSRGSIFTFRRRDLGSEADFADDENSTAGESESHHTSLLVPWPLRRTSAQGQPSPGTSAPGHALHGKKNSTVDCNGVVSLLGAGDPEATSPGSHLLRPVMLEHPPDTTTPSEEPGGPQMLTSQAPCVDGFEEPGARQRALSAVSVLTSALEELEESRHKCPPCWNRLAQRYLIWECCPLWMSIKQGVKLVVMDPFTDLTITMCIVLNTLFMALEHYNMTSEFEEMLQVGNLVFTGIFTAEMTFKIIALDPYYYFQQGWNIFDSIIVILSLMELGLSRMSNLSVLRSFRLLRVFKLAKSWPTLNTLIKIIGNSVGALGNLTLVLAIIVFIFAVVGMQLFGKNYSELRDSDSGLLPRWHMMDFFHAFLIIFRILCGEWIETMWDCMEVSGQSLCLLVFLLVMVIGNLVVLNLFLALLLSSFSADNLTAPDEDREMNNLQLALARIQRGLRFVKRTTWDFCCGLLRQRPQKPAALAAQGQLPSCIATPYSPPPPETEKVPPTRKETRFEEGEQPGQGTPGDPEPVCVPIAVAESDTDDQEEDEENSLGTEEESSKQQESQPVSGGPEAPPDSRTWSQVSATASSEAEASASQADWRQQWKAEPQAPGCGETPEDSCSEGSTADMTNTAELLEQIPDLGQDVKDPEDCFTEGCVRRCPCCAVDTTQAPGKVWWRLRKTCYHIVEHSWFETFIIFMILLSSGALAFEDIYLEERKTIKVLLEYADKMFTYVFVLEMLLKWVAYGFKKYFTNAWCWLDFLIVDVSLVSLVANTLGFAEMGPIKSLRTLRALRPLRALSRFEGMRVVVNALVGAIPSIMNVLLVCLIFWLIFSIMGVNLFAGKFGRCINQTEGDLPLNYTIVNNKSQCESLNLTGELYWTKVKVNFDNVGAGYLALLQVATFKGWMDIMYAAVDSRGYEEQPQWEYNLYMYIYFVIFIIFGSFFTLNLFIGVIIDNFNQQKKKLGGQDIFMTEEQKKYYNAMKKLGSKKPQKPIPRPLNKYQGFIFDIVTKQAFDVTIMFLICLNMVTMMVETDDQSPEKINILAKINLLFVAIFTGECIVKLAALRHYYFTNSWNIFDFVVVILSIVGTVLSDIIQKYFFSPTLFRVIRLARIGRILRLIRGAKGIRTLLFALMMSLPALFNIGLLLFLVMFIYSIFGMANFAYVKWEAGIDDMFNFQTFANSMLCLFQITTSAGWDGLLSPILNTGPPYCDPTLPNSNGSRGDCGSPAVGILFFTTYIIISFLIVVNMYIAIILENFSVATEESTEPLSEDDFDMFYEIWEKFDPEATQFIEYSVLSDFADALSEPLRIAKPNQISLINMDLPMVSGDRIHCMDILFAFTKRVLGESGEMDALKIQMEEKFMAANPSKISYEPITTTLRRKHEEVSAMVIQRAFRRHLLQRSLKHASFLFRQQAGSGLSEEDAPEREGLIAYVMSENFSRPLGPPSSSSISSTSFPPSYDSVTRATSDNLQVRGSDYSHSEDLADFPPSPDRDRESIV
Usually inhibition stands for the drop in the measured response relative to a control, in per cent. Low readings indicate a weak effect, high ones a strong effect. `Cc1nc(Cn2nc3ccc(-c4ccc(Oc5ccc(Cl)cc5)cc4)cn3c2=O)no1` displayed an inhibition at 1 µM of 68.4%.
To `Cc1noc(Cn2nc3ccc(-c4ccc(Oc5ccc(Cl)cc5)cc4)cn3c2=O)n1` belongs 55.8%; to `COc1ccccc1OCC(Cn1nc2ccc(-c3ccc(OC(F)(F)F)cc3)cn2c1=O)OC` (centres undefined), 55%.
As for `Cc1noc(Cn2nc3ccc(-c4ccc(Oc5ccc(F)cc5)cc4)cn3c2=O)n1`, the figure is 71.2%.
